From patent publication US5298652A, “N-substituted glycines, inhibitors of phospholipase A2” (Hoffmann-La Roche Inc., priority 1992, dated 1994)

Tests used:
[1] = molecular target: T1, HSF-PLA2 (extracellular PLA2 obtained from human synovial fluid) (Homo sapiens, UniProt P14555); test: Assay for inhibition of HSF-PLA2 in vitro; type: biochemical; conditions: read-out: % Inhib of HSF-PLA2; for inhibition at 5 µM: 5 μM test compound; for inhibition at 1 µM: 1 μM test compound
T1 construct: extracellular enzyme obtained from human synovial fluid; from tissue; host or cells: human synovial fluid (pooled)
T1 sequence (P14555 21-144): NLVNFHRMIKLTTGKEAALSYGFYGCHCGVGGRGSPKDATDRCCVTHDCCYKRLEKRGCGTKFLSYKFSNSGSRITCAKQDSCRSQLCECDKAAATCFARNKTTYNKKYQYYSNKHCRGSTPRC
Description: Assay for Inhibition of HSF-PLA2 In Vitro
The PLA2 used in this test is the extracellular enzyme obtained from human synovial fluid (HSF-PLA2).
The assay for HSF-PLA2 activity was a modification of the described method [Franson R., Dobrow R., Weiss, J., Elsbach P., and Weglick W. B., J. Lipid Res., 19, 18-23 (1978)] which was conducted using [1-^14 C]-oleate-labelled E. coli substrate in excess at a final concentration of 20,000 dpm/ml. This was equivalent to 18.2 mM of cell membrane phospholipid phosphorus and 2×10^9 autoclaved E. coli/ml. The optimal conditions which were developed for the assay of HSF-PLA2 inhibitors are summarized as follows. A total volume of 0.5 ml of reaction mixture typically had the following final composition: substrate (20,000 dpm/ml); enzyme (0.1% HSF, v/v); 2 mM CaCl2; 150 mM Na^+; 50 mM sodium HEPES buffer, pH 7.3; and 1% dimethyl sulfoxide (DMSO, used to solubilize test inhibitors) in the presence or absence of inhibitor. The reaction was initiated by the addition of HSF-PLA2 and duplicate samples of the mixture were incubated in 13×100 mm glass tubes with shaking for 30 minutes at 37° C. The reaction was terminated by the addition of 2.5 ml of chloroform-methanol (1 to 1.5, v/v). The extraction of lipids from the stopped reaction mixture was conducted by the further additions of 0.5 ml of chloroform and 1 ml of water with mixing. After centrifuging, the lower chloroform phase was transferred to smaller glass tubes and the solvent was evaporated to dryness with a nitrogen stream. The extracted lipid residue was redissolved in […] of a solution containing carrier oleic acid (0.2 mg/ml) in chloroform-methanol [9 to 1, v/v]). The whole lipid extract was applied to a preactivated (30 minutes at 110° C.) silica gel-impregnated glass fiber thin layer chromatography sheet (ITLC type SG sheet from Gelman Sciences Inc., Ann Arbor, Mich.) using hexane-acetic acid (100 to 1, v/v) as the developing solvent. This TLC system rapidly (6 minutes) resolved the enzymatically released product, ^14 C-oleic acid, from the unreacted ^14 C-phospholipid substrate. The unsaturated lipids were located on the chromatogram by a brief exposure to iodine vapor. The oleic acid zone (Rf value 0.95) and phospholipid zone (origin) were cut out, chopped into small pieces, shaken with 2 ml of ethanol-water (80 to 20, v/v) and 15 ml of Aquasol and counted for radio-activity. A control incubation of substrate in the absence of HSF-PLA2 was performed in each experiment. The PLA2 activity of the human synovial fluid was corrected for this small control value. […] The specific activity of PLA2 in the pooled human synovial fluid under the optimal assay conditions was 49.2 nmoles [1-^14 C]-oleic aid released hour^-1 mg^-1. The IC50 (μM concentration of test compound that produces 50% inhibition of PLA2 activity) was determined for each test compound.

[2] = test system: croton oil-induced mouse ear edema; test: Croton oil mouse ear edema test; type: in vivo, male CD-1 mice; conditions: 1 mg topical, coapplied with croton oil; ear punch weight at 6 hours
Description: Croton Oil Mouse Ear Edema Test
The croton oil-induced mouse ear edema test, a model of irritant-induced contact dermatitis, has been used for evaluation of the PLA2 inhibitors by the topical route of administration. This test was carried out as described in the following references: […]
Twenty five μl of a 1% croton oil solution [dissolved in a mixture of pyridine/water/diethyl ether at a ratio of 5/20/75 (croton oil vehicle)] are applied to the outer side of the right ear of 3-4 week old male CD-1 mice (8 animals per group). The test compounds are dissolved directly in the 1% croton oil solution at various concentrations and coapplied. Control animals receive 25 μl of croton oil vehicle on the right ear. Biopsy punches are removed at 6 hours from the right ear of the animals using a 6 mm skin trephine (Roboz, Washington, D.C.) and the wet weight of the ear punches is determined. The weight of the biopsy punches is a measure of ear inflammation, primarily edema. The data are expressed as percent inhibition relative to control groups.
Statistical analysis of the mean edema values of the control versus the treated groups is performed using Student's t-test. The significance of changes from mean value for vehicle-treated animals is as follows (*p<0.05, **p<0.01, ***p<0.005, ns/not significant).

| inhibition at 5 µM [1] | inhibition at 1 µM [1] | Structure (SMILES) | % Inhib of Croton Oil Mouse Ear Edema (1 mg) [2] |
| --- | --- | --- | --- |
| 13% | – | CCCCCCCCCCCCCCOc1cccc(C(=O)N(CC(=O)O)CC(=O)O)c1 [Example 5, N-(Carboxymethyl)-N-[3-(tetradecyloxy)benzoyl]glycine] | – |
| 8% | – | CCCCCCCCCCOc1cccc(C(=O)N(CC(=O)O)CC(=O)O)c1 [Example 6, N-(Carboxymethyl)-N-[3-(decyloxy)benzoyl]glycine] | 47% |
| 8% | – | CCCCCCCCCCCCCCCCCC(=O)Nc1cccc(C(=O)N(CC(=O)O)CC(=O)O)c1 [Example 9, N-(carboxymethyl)-N-[3-(1-oxooctadecylamino)benzoyl]glycine] | 20% |
| – | 27% | CCCCCCCCCCCCCCOc1cc(OCCCCCCCCCCCCCC)cc(C(=O)N(CC(=O)O)CC(=O)O)c1 [Example 13, N-(Carboxymethyl)-N-[3,5-bis(tetradecyloxy)benzoyl]glycine] | 60% |
| 72% | – | CCCCCCCCCCCCCCCCCCOc1cc(OCCCOc2ccccc2)cc(C(=O)N(CC(=O)O)CC(=O)O)c1 [Example 18, N-(Carboxymethyl)-N-[3-[3-(phenoxy)propoxy]-5-(octadecyloxy)benzoyl]glycine] | 59% |
| – | 18% | CCCCCCCCCCCCCCCCCCOc1cc(OCCCOc2ccc(OC)cc2)cc(C(=O)N(CC(=O)O)CC(=O)O)c1 [Example 20, N-(carboxymethyl)-N-[3-[3-(4-methoxyphenoxy)propoxy]-5-(octadecyloxy)benzoyl]glycine] | – |
| -16% | – | CCCCCCCCCCCCCCCCCCOc1cc(OCCOc2ccc3ccccc3c2)cc(C(=O)N(CC(=O)O)CC(=O)O)c1 [Example 25] | 44% |
| 23% | – | CCCCCCCCCCCCCCCCCCOc1cc(C(=O)O)cc(C(=O)N(CC(=O)O)CC(=O)O)c1 [Example 30, N-(Carboxymethyl)-N-[3-carboxy-5-(octadecyloxy)benzoyl]glycine] | – |
| – | 29% | CCCCCCCCCCCCCCCCCCOc1cc(OCC(=O)O)cc(C(=O)N(CC(=O)O)CC(=O)O)c1 [Example 33, N-(Carboxymethyl)-N-[3-(carboxymethoxy)-5-(octadecyloxy)benzoyl]glycine] | 71% |
| 5% | – | O=C(O)CCCCCCCCCCOc1cc(OCCCCCCCCCCC(=O)O)cc(C(=O)N(CC(=O)O)CC(=O)O)c1 [Example 35, N-(carboxymethyl)-N-[3,5-bis[(10-carboxydecyl)oxy]benzoyl]glycine] | 50% |
| 55% | – | CCCCCCCCCCCCCCCCCCOc1cc(OCc2ccccc2)cc(C(=O)N(CC(=O)O)CC(=O)O)c1 [Example 38, N-(Carboxymethyl)-N-[3-(octadecyloxy)-5-(phenylmethoxy)benzoyl]glycine] | 35% |
| 20% | – | CCCCCCCCCCCCCCCCCCOc1cc(O)cc(C(=O)N(CC(=O)O)CC(=O)O)c1 [Example 39, N-(Carboxymethyl)-N-[3-hydroxy-5-(octadecyloxy)benzoyl]glycine] | 47% |
| 10% | – | CCCCCCCCCCCCCCCCCCOc1cc(C(=O)N(CC(=O)O)CC(=O)O)cc([N+](=O)[O-])c1 [Example 43, N-(carboxymethyl)-N-[3-nitro-5-(octadecyloxy)benzoyl]glycine] | 48% |
| 34% | – | CCCCCCCCCCCCCCCCCCOc1cc(N)cc(C(=O)N(CC(=O)O)CC(=O)O)c1 [Example 44, N-(Carboxymethyl)-N-[3-amino-5-(octadecyloxy)benzoyl]glycine] | 35% |
| 38% | – | CCCCCCCCCCCCCCOc1ccc(C(=O)N(CC(=O)O)CC(=O)O)cc1OCCCCCCCCCCCCCC [Example 51, N-(Carboxymethyl)-N-[3,4-bis(tetradecyloxy)benzoyl]glycine] | – |
| 57% | – | CCCCCCCCCCCCCCCCCCOc1cccc(C(=O)C(=O)N(CC(=O)O)CC(=O)O)c1 [Example 69, N-(Carboxymethyl)-N-[2-[3-(octadecyloxy)phenyl]-1,2-dioxoethyl]glycine] | 28% |
| 23% | – | CCCCCCCCCCCCCCCCCCOc1cccc(C(=O)NCC(=O)O)c1 [Example 74, N-[3-(Octadecyloxy)benzoyl]glycine] | 33% |
| 45% | – | CCCCCCCCCCCCCCCCCCOc1cccc(CC(=O)N(CC(=O)O)CC(=O)O)c1 [Example 76, N-(Carboxymethyl)-N-[3-(octadecyloxy)phenylacetyl]glycine] | 38% |
| 68% | – | CCCCCCCCCCCCCCCCCCOc1cccc(/C=C/C(=O)N(CC(=O)O)CC(=O)O)c1 [Example 78, (E)-N-(carboxymethyl)-N-[3-[(3-octadecyloxy)phenyl]-1-oxo-2-propenyl]glycine] | 48% |
| 70% | – | CCCCCCCCCCCCCCCCCCOc1cccc(CCC(=O)N(CC(=O)O)CC(=O)O)c1 [Example 79, N-(Carboxymethyl)-N-[3-[(3-octadecyloxy)phenyl]-1-oxopropyl]glycine] | – |

| Structure (SMILES) | inhibition at 5 µM [1] | inhibition at 1 µM [1] | % Inhib of Croton Oil Mouse Ear Edema (1 mg) [2] |
| --- | --- | --- | --- |
| CCCCCCCCCCCCCCCCCCOc1cc(OCCCOc2cccc([N+](=O)[O-])c2)cc(C(=O)N(CC(=O)O)CC(=O)O)c1 [Example 22, N-(Carboxymethyl)-N-[3-[3-(3-nitrophenoxy)propoxy]-5-(octadecyloxy)benzoyl]glycine] | 60% | – | 54% |
| CCCCCCCCCCCCCCCCCCOc1cc(OCCCOc2cccc(N)c2)cc(C(=O)N(CC(=O)O)CC(=O)O)c1 [Example 23, N-(Carboxymethyl)-N-[3-[3-(3-aminophenoxy)propoxy]-5-(octadecyloxy)benzoyl]glycine] | 50% | – | 21% |
